Experimental data as given in ChEMBL document CHEMBL3244333, “2-Acetylpyridine thiosemicarbazones. 2. N4,N4-Disubstituted derivatives as potential antimalarial agents” (J Med Chem, 1979).
Active and inactive are the calls of the source. The rule behind the calls is not given here.

Assays:
Plasmodium berghei [1] = experiment: Antimalarial activity against Plasmodium berghei KBG 173 infected in mouse assessed as increase of mean survival time at 40 mg/kg; assay type: functional
Plasmodium berghei [2] = experiment: Antimalarial activity against Plasmodium berghei KBG 173 infected in mouse assessed as increase of mean survival time at 80 mg/kg; assay type: functional
Plasmodium berghei [3] = experiment: Antimalarial activity against Plasmodium berghei KBG 173 infected in mouse assessed as cured animal from parasite infection at 160 mg/kg; assay type: functional, organism-based; design: dose 160 mg/kg
Plasmodium berghei [4] = experiment: Antimalarial activity against Plasmodium berghei KBG 173 infected in mouse assessed as cured animal from parasite infection at 320 mg/kg; assay type: functional, organism-based; design: dose 320 mg/kg
Plasmodium berghei [5] = experiment: Antimalarial activity against Plasmodium berghei KBG 173 infected in mouse assessed as cured animal from parasite infection at 640 mg/kg; assay type: functional, organism-based; design: dose 640 mg/kg
Mus musculus [6] = experiment: Toxicity in Plasmodium berghei KBG 173 infected mouse at 80 mg/kg; assay type: organism-based; design: dose 80 mg/kg; settings: in vivo
Plasmodium berghei [7] = experiment: Antimalarial activity against Plasmodium berghei KBG 173 infected in mouse assessed as cured animal from parasite infection at 80 mg/kg; assay type: functional, organism-based; design: dose 80 mg/kg
Mus musculus [8] = experiment: Toxicity in Plasmodium berghei KBG 173 infected mouse at 160 mg/kg; assay type: organism-based; design: dose 160 mg/kg; settings: in vivo
Mus musculus [9] = experiment: Toxicity in Plasmodium berghei KBG 173 infected mouse at 320 mg/kg; assay type: organism-based; design: dose 320 mg/kg; settings: in vivo
Mus musculus [10] = experiment: Toxicity in Plasmodium berghei KBG 173 infected mouse at 640 mg/kg; assay type: organism-based; design: dose 640 mg/kg; settings: in vivo
Plasmodium berghei [11] = experiment: Antimalarial activity against Plasmodium berghei KBG 173 infected in mouse assessed as cured animal from parasite infection at 40 mg/kg; assay type: functional, organism-based; design: dose 40 mg/kg
Plasmodium berghei [12] = experiment: Antimalarial activity against Plasmodium berghei KBG 173 infected in mouse assessed as increase of mean survival time at 320 mg/kg; assay type: functional
Plasmodium berghei [13] = experiment: Antimalarial activity against Plasmodium berghei KBG 173 infected in mouse assessed as increase of mean survival time at 640 mg/kg; assay type: functional
Mus musculus [14] = experiment: Toxicity in Plasmodium berghei KBG 173 infected mouse at 40 mg/kg; assay type: organism-based; design: dose 40 mg/kg; settings: in vivo
Plasmodium berghei [15] = experiment: Antimalarial activity against Plasmodium berghei KBG 173 infected in mouse assessed as increase of mean survival time at 160 mg/kg; assay type: functional

Row | Compound | Survival (Plasmodium berghei [1]) [days] | Survival (Plasmodium berghei [2]) [days] | Activity (Plasmodium berghei [3]) | Activity (Plasmodium berghei [4]) | Activity (Plasmodium berghei [5]) | Activity (Mus musculus [6]) | Activity (Plasmodium berghei [7]) | Activity (Mus musculus [8]) | Activity (Mus musculus [9]) | Activity (Mus musculus [10]) | Activity (Plasmodium berghei [11]) | Survival (Plasmodium berghei [12]) [days] | Survival (Plasmodium berghei [13]) [days] | Activity (Mus musculus [14]) | Survival (Plasmodium berghei [15]) [days]
1 | C/C(=N/NC(=S)N1CC=C(c2ccccc2)CC1)c1ccccn1 | 0.8 | 2 | Active | Active | Active | – | – | – | – | – | – | – | – | – | –
2 | C/C(=N/NC(=S)N(C)Cc1ccccc1)c1ccccn1 | 4 | – | Active | Active | Active | Toxic | Active | Toxic | Toxic | Toxic | – | – | – | – | –
3 | C/C(=N/NC(=S)N1CCN(c2ccccc2)CC1)c1ccccn1 | 7 | 11.7 | Active | – | Active | – | Active | – | Toxic | Toxic | Active | -0.1 | -0.4 | – | –
4 | C/C(=N/NC(=S)N1CCC(Cc2ccccc2)CC1)c1ccccn1 | 0.4 | 2.8 | Active | Active | Active | – | – | – | – | – | – | – | – | – | –
5 | CCN(CC)C(=S)N/N=C(/C)c1ccccn1 | 7.2 | – | Active | – | Active | Toxic | Active | Toxic | – | Toxic | Active | – | 0 | – | –
6 | C/C(=N/NC(=S)N1C(C)CCC1C)c1ccccn1 (centres undefined) | 4.7 | – | Active | Active | Active | – | Active | Toxic | Toxic | Toxic | – | 0 | 0 | – | –
7 | C/C(=N/NC(=S)N(C)CCc1ccccn1)c1ccccn1 | 1.7 | 3.3 | Active | Active | – | – | – | Toxic | Toxic | Toxic | – | 6.7 | 0 | Toxic | 0
8 | C/C(=N/NC(=S)N1CCN(Cc2ccccc2)CC1)c1ccccn1 | 1.6 | 4.4 | – | Active | Active | – | – | – | – | – | – | – | – | – | 5.6
9 | C/C(=N/NC(=S)N(C)C1CCCCCCC1)c1ccccn1 | 3.2 | 9.6 | Active | Active | Active | – | Active | – | – | Toxic | – | – | 12.1 | – | –
10 | C/C(=N/NC(=S)N1CC2CCC(CC2)C1)c1ccccn1 | – | – | Active | – | – | – | Active | – | – | Toxic | Active | 0.2 | 0.4 | – | –
11 | C/C(=N/NC(=S)N1CCN(c2ccccn2)CC1)c1ccccn1 | – | – | – | – | – | – | – | – | Toxic | Toxic | – | 0.7 | 0 | – | –
12 | C/C(=N/NC(=S)N1CCN(c2cccc(C(F)(F)F)c2)CC1)c1ccccn1 | 0.1 | 2.4 | Active | Active | Active | – | – | – | Toxic | Toxic | – | – | – | – | –
13 | CCCCN(C)C(=S)N/N=C(/C)c1ccccn1 | 5.9 | 8.1 | Active | Active | Active | – | Active | Toxic | Toxic | Toxic | – | 0 | 0 | – | 6.9
14 | C/C(=N/NC(=S)N1CC(C)CC(C)C1)c1ccccn1 (centres undefined) | 5.6 | – | Active | Active | – | – | Active | – | Toxic | Toxic | – | 0 | -0.4 | – | –
15 | C/C(=N/NC(=S)N1C(C)CCCC1C)c1ccccn1 (centres undefined) | 0.5 | 1.6 | – | Active | Active | – | – | – | – | Toxic | – | – | – | – | 6.3
16 | C/C(=N/NC(=S)N(C)C1CCCC1)c1ccccn1 | 1.5 | – | Active | Active | Active | – | Active | – | Toxic | Toxic | – | 6 | 0 | – | –
